The results in this text go back to article PMC9386018, “A lymphatic-absorbed multi-targeted kinase inhibitor for myelofibrosis therapy” (Nature Communications, 2022).

“And” between values parts separate entries of the source, which are not always exact repeats. Equal values may be shown once.

Experiment [1] deals with MPL^W515L mouse model of myelofibrosis. Put plainly: MPL^W515L MF mouse model Study 2: spleen volume by MRI. In kind it is in vivo. The settings on record: for Spleen volume/body weight ratio: Study 2, individual animals, Supplementary Figure 11a. The procedure: Generation of the MPL^W515L mutant MF mouse model was similar to previously described methods. Briefly, female donor BALB/c mice were treated with 5-fluorouracil at 150 mg kg^−1 intraperitoneal for 5 d before harvesting bone marrow. Hematopoietic stem and progenitor cells were enriched with CD117 magnetic beads (Miltenyi Biotec), transduced with retrovirus containing MSCV-hMPL W515L-IRES-GFP, then 50,000 transduced HSPCs along with 300,000 total non-stem cells were injected intravenously into lethally irradiated female BALB/c recipients. Development of MF was evaluated by spleen volumes using MRI beginning ~14 d following bone marrow transplantation (BMT) as outlined below, continuing weekly until end of the study. Mice were separated into equal groups based on spleen size ~14–21 d post-BMT, then treated with vehicle (Maisine CC) or LP-182 at 400 mg kg^−1 daily by oral gavage for 14–28 d or until mice were euthanized using guidelines for end stage illness and humane endpoints. Untreated healthy control animals were used for experimental comparisons. Tissues were harvested and processed for flow cytometry (as described above), LCMS/MS, immuno-blotting, and histological analysis (as described in Supplementary Methods) at the defined study endpoint(s), approximately 1–2 h post-treatment with vehicle or LP-182. Briefly, blood samples were collected, transferred into K2-EDTA tubes (BD Microtainer), inverted gently to mix, then centrifuged at 2000 x g for 15 min. […] Dissection and bone marrow isolation from mouse femur and tibia was performed similar to previously described methods. Briefly, the hind limbs from mice were dissected, muscle and connective tissue removed, and bones were frozen at −80 °C. Femur and tibia were thawed separately, placed knee-end down in 18 gauge needle-pierced 0.5 mL microcentrifuge tubes nested inside 1.5 or 2 mL microcentrifuge tubes containing 1.4 mm ceramic beads (Fisher Scientific), then bone marrow was isolated by centrifugation at 10,000 x g for 1 min and processed for analysis by LCMS/MS (above; femur) or immuno-blotting (tibia). […] Soluble protein extracts were isolated by centrifugation at 15,000 x g for 15 min at 4 °C, quantified using Micro BCA protein assay (Thermo Scientific), then mixed with reducing 6X SDS-PAGE loading dye, heated for 8 min at 95 °C, and stored at −20 °C until immuno-blot analysis. Whole cell lysates were resolved by 10% SDS-PAGE, transferred to PVDF (Immobilon-P; MilliporeSigma), then membranes were blocked with 5% BSA (Equitech-Bio) in TBS containing 0.1% Tween-20 (TBST) for 1 h at room temperature with gentle orbital shaking. […]

The test system is the same in experiment [2]. Kind of experiment: MPL^W515L MF mouse model: histology of spleen, liver and bone marrow. The note with it: MPL^W515L mice, oral 400 mg kg^−1 daily, 28 d. It counts as in vivo. As to the method:
Generation of the MPL^W515L mutant MF mouse model was similar to previously described methods. Briefly, female donor BALB/c mice were treated with 5-fluorouracil at 150 mg kg^−1 intraperitoneal for 5 d before harvesting bone marrow. Hematopoietic stem and progenitor cells were enriched with CD117 magnetic beads (Miltenyi Biotec), transduced with retrovirus containing MSCV-hMPL W515L-IRES-GFP, then 50,000 transduced HSPCs along with 300,000 total non-stem cells were injected intravenously into lethally irradiated female BALB/c recipients. Development of MF was evaluated by spleen volumes using MRI beginning ~14 d following bone marrow transplantation (BMT) as outlined below, continuing weekly until end of the study. Mice were separated into equal groups based on spleen size ~14–21 d post-BMT, then treated with vehicle (Maisine CC) or LP-182 at 400 mg kg^−1 daily by oral gavage for 14–28 d or until mice were euthanized using guidelines for end stage illness and humane endpoints. Untreated healthy control animals were used for experimental comparisons. […] Soluble protein extracts were isolated by centrifugation at 15,000 x g for 15 min at 4 °C, quantified using Micro BCA protein assay (Thermo Scientific), then mixed with reducing 6X SDS-PAGE loading dye, heated for 8 min at 95 °C, and stored at −20 °C until immuno-blot analysis. […]

With `O=C(NOCCOCCOCCOCCC(=O)N1CCN(c2cnc3ccc(-c4cnc(Cl)c(NS(=O)(=O)c5ccc(F)cc5)c4)cc3n2)CC1)c1ccc(F)c(F)c1Nc1ccc(I)cc1F` [LP-182, N-(2-(2-(2-(3-(4-(7-(6-chloro-5-((4-fluorophenyl)sulfonamido)pyridin-3-yl)quinoxalin-2-yl)piperazin-1-yl)-3-oxopropoxy)ethoxy)ethoxy)ethoxy)-3,4-difluoro-2-((2-fluoro-4-iodophenyl)amino)benzamide], the “attenuation of spleen volume increase compared to vehicle” value in experiment [1] (Study 2, MPL^W515L mice, oral 400 mg kg^−1 daily, after 14 d) is given as ~ 35%. Besides, the “Spleen volume/body weight ratio” value in experiment [1] (15 Days Post-BMT) is 9.2805 mm3/g and 6.788 mm3/g and 8.526 mm3/g and 6.999 mm3/g and 8.219 mm3/g and 8.1905 mm3/g and 7.226 mm3/g and 10.8805 mm3/g; in experiment [1] (22 Days Post-BMT), 22.8 mm3/g and 16.1111 mm3/g and 16.0806 mm3/g and 22.1506 mm3/g and 12.2778 mm3/g and 11.0626 mm3/g and 6.573 mm3/g and 8.03 mm3/g; in experiment [1] (29 Days Post-BMT), 30.4359 mm3/g and 16.7368 mm3/g and 15.8947 mm3/g and 27.7838 mm3/g and 8.806 mm3/g and 15.337 mm3/g and 5.115 mm3/g and 6.324 mm3/g. For the same molecule, the “extramedullary hematopoiesis, number of MKs and MPL^W515L-positive MKs” value in experiment [2] was “reduced”. In addition, the “reticulin fibrosis in bone marrow” value in experiment [2] is on record as “diminution of reticulin fibrosis”.
